Activity calls are given as the source filed them. The rule behind the calls is not given here.
Experiments:
[1] = test system: Lissorhoptrus oryzophilus; assay: Insecticidal activity against Lissorhoptrus oryzophilus in five to six-leaf stage rice plants assessed as mortality treated as seed measured after 72 hr of feeding; type: functional, organism-based
[2] = test system: Lissorhoptrus oryzophilus; assay: Insecticidal activity against Lissorhoptrus oryzophilus in three to four-leaf stage rice plants assessed as mortality treated as seed measured after 72 hr of feeding; type: functional
[3] = test system: Lissorhoptrus oryzophilus; assay: Insecticidal activity against Lissorhoptrus oryzophilus in two to three-leaf stage rice plants assessed as mortality treated as seed measured after 72 hr of feeding; type: functional
[4] = test system: Lissorhoptrus oryzophilus; assay: Insecticidal activity against Lissorhoptrus oryzophilus in rice plants assessed as mortality at 7 ug treated as seed measured after 72 hr of feeding (reference value: 3.8 +/- 1.8%); type: functional
[5] = test system: Lissorhoptrus oryzophilus; assay: Insecticidal activity against Lissorhoptrus oryzophilus in rice plants assessed as leaf consumption rate per day at 7 ug treated as seed measured after 72 hr of feeding (reference value: 8.3 +/- 0.5 mm'2 /day); type: functional
[6] = test system: Lissorhoptrus oryzophilus; assay: Insecticidal activity against Lissorhoptrus oryzophilus in rice plants assessed as mortality at 35 ug treated as seed measured after 72 hr of feeding (reference value: 3.8 +/- 1.8%); type: functional
[7] = test system: Lissorhoptrus oryzophilus; assay: Insecticidal activity against Lissorhoptrus oryzophilus in rice plants assessed as mortality at 28 ug treated as seed measured after 72 hr of feeding (reference value: 3.8 +/- 1.8%); type: functional
[8] = test system: Lissorhoptrus oryzophilus; assay: Insecticidal activity against Lissorhoptrus oryzophilus in rice plants assessed as mortality at 21 ug treated as seed measured after 72 hr of feeding (reference value: 3.8 +/- 1.8%); type: functional
[9] = test system: Lissorhoptrus oryzophilus; assay: Insecticidal activity against Lissorhoptrus oryzophilus in rice plants assessed as mortality at 14 ug treated as seed measured after 72 hr of feeding (reference value: 3.8 +/- 1.8%); type: functional
[10] = test system: Lissorhoptrus oryzophilus; assay: Insecticidal activity against Lissorhoptrus oryzophilus in rice plants assessed as leaf consumption rate per day at 35 ug treated as seed measured after 72 hr of feeding (reference value: 8.3 +/- 0.5 mm'2 /day); type: functional
[11] = test system: Lissorhoptrus oryzophilus; assay: Insecticidal activity against Lissorhoptrus oryzophilus in rice plants assessed as leaf consumption rate per day at 28 ug treated as seed measured after 72 hr of feeding (reference value: 8.3 +/- 0.5 mm'2 /day); type: functional
[12] = test system: Lissorhoptrus oryzophilus; assay: Insecticidal activity against Lissorhoptrus oryzophilus in rice plants assessed as leaf consumption rate per day at 21 ug treated as seed measured after 72 hr of feeding (reference value: 8.3 +/- 0.5 mm'2 /day); type: functional
[13] = test system: Lissorhoptrus oryzophilus; assay: Insecticidal activity against Lissorhoptrus oryzophilus in rice plants assessed as leaf consumption rate per day at 14 ug treated as seed measured after 72 hr of feeding (reference value: 8.3 +/- 0.5 mm'2 /day); type: functional
[14] = test system: Lissorhoptrus oryzophilus; assay: Insecticidal activity against Lissorhoptrus oryzophilus in rice plants assessed as mortality at 100 ug treated as seed measured after 72 hr of feeding (reference value: 15 +/- 2.9%); type: functional
[15] = test system: Lissorhoptrus oryzophilus; assay: Insecticidal activity against Lissorhoptrus oryzophilus in rice plants assessed as mortality at 50 ug treated as seed measured after 72 hr of feeding (reference value: 15 +/- 2.9%); type: functional
[16] = test system: Lissorhoptrus oryzophilus; assay: Insecticidal activity against Lissorhoptrus oryzophilus in rice plants assessed as mortality at 25 ug treated as seed measured after 72 hr of feeding (reference value: 15 +/- 2.9%); type: functional
[17] = test system: Lissorhoptrus oryzophilus; assay: Insecticidal activity against Lissorhoptrus oryzophilus in rice plants assessed as mortality at 10 ug treated as seed measured after 72 hr of feeding (reference value: 15 +/- 2.9%); type: functional
[18] = test system: Lissorhoptrus oryzophilus; assay: Insecticidal activity against Lissorhoptrus oryzophilus in rice plants assessed as leaf consumption rate per day at 100 ug treated as seed measured after 72 hr of feeding (reference value: 8.3 +/- 0.7 mm'2 /day); type: functional
[19] = test system: Lissorhoptrus oryzophilus; assay: Insecticidal activity against Lissorhoptrus oryzophilus in rice plants assessed as leaf consumption rate per day at 50 ug treated as seed measured after 72 hr of feeding (reference value: 8.3 +/- 0.7 mm'2 /day); type: functional
[20] = test system: Lissorhoptrus oryzophilus; assay: Insecticidal activity against Lissorhoptrus oryzophilus in rice plants assessed as leaf consumption rate per day at 25 ug treated as seed measured after 72 hr of feeding (reference value: 8.3 +/- 0.7 mm'2 /day); type: functional
[21] = test system: Lissorhoptrus oryzophilus; assay: Insecticidal activity against Lissorhoptrus oryzophilus in rice plants assessed as leaf consumption rate per day at 10 ug treated as seed measured after 72 hr of feeding (reference value: 8.3 +/- 0.7 mm'2 /day); type: functional

`CN1COCN(Cc2cnc(Cl)s2)/C1=N\[N+](=O)[O-]` [THIAMETHOXAM] was tested, and the Activity [1] was “Active”, the LC50 [2] was 142 pg and the LC50 [3] was 447 pg. For the same compound, the mortality [4] was 22.5%, the Activity [5] was 6.9 mm2 and the mortality [6] was 45%. It also gave a mortality [7] of 42.5%, a mortality [8] of 28.8% and a mortality [9] of 21.3%. For the same compound, the Activity [10] was 6.4 mm2, the Activity [11] was 5.2 mm2 and the Activity [12] was 5.5 mm2. It also gave an Activity [13] of 6.6 mm2.
`CNC(=O)c1cc(Cl)cc(C)c1NC(=O)c1cc(Br)nn1-c1ncccc1Cl` [CHLORANTRANILIPROLE] showed a mortality [14] of 16.3%, a mortality [15] of 12.5% and a mortality [16] of 20%. The mortality [17] was 10%, the Activity [18] was 9.4 mm2 and the Activity [19] was 7.3 mm2. The Activity [20] was 6.7 mm2 and the Activity [21] was 8.3 mm2.

Reference: ChEMBL document CHEMBL3046088, “Systemic effects of thiamethoxam and chlorantraniliprole seed treatments on adult Lissorhoptrus oryzophilus (Coleoptera: Curculionidae) in rice” (2013)
